Reference: patent US20120220603A1, “SUBSTITUTED HETEROCYCLIC DERIVATIVES FOR THE TREATMENT OF PAIN AND EPILEPSY” (ZALICUS PHARMACEUTICALS LTD., priority 2009, published 2012)

Experiments:
[1] = target: T1, CaV3.2 T-type Ca2+ channels expressed in HEK cells (Homo sapiens, UniProt O95180); test: CaV3.2 voltage-clamp electrophysiological assay (fast and slow inactivation); format: cell-based
T1 construct: expressed in transfected cells; host or cells: HEK cells
Description: Prior to recording currents from CaV3.2 T-type Ca^2+ channels expressed in HEK cells, the culture media was replaced with extracellular solution (ECS) containing (in mM): 142 CsCl, 10 D-glucose, 2 CaCl2, 1 MgCl2, 10 HEPES, pH adjusted to 7.4 with CsOH. Borosilicate glass patch pipettes, pulled on a P-97 micropipette puller (Sutter Instruments, Novato, Calif.) with typical resistances of 2-4 MW, were backfilled with intracellular solution containing (in mM): 126.5 Cs-methanesulphonate, 2 MgCl2, 10 HEPES, 11 EGTA, 2 Na-ATP, pH adjusted to 7.3 CsOH. […] were recorded in the whole-cell configuration at room temperature (˜21° C.) using an Axopatch 200B (Molecular Devices, Sunnyvale, Calif.) patch-clamp amplifier. Recordings were low-pass filtered at 1 kHz (−3 dB 4-pole Bessel filter), digitized at 2 kHz with a Digidata 1322A interface (Molecular Devices), and acquired using pClamp 9.2 (Molecular Devices). No leak subtraction was used. Test compounds, prepared as 30 mM stock solutions in DMSO and diluted in extracellular buffer, were applied through a gravity driven multi-barrelled array of capillaries (24 gauge) connected to reservoirs controlled by solenoid valves. The effects of compounds on CaV3.2 slow and fast inactivation were evaluated using four different voltage protocols. The voltage dependence of fast and slow channel inactivation was examined using a two pulse protocol. Data were analyzed and fitted using OriginPro v.7.5 (OriginLab, Northampton, Mass.) software.

[2] = tested on: Lamina I/II spinal cord neurons; test: Lamina assay: current-clamp recordings on lamina I/II spinal cord neurons; format: cell-based, rat; conditions: Lamina I and II; for % Spike Change (Mean; % change from control): tonic firing neurons, current-clamp
Description: Male Wistar rats (P6 to P9 for voltage-clamp and P15 to P18 for current-clamp recordings) were anaesthetized through intraperitoneal injection of Inactin (Sigma). The spinal cord was then rapidly dissected out and placed in an ice-cold solution protective sucrose solution containing (in mM): 50 sucrose, 92 NaCl, 15 D-Glucose, 26 NaHCO3, 5 KCl, 1.25 NaH2PO4, 0.5 CaCl2, 7 MgSO4, 1 kynurenic acid, and bubbled with 5% CO2/95% O2. The meninges, dura, and dorsal and ventral roots were then removed from the lumbar region of the spinal cord under a dissecting microscope. The “cleaned” lumbar region of the spinal cord was glued to the vibratome stage and immediately immersed in ice cold, bubbled, sucrose solution. For current-clamp recordings, 300 to 350 μm parasagittal slices were cut to preserve the dendritic arbour of lamina I neurons, while 350 to 400 μm transverse slices were prepared for voltage-clamped […] channel recordings. Slices were allowed to recover for 1 hour at 35° C. in Ringer solution containing (in mM): 125 NaCl, 20 D-Glucose, 26 NaHCO3, 3 KCl, 1.25 NaH2PO4, 2 CaCl2, 1 MgCl2, 1 kynurenic acid, 0.1 picrotoxin, bubbled with 5% CO2/95% O2. The slice recovery chamber was then returned to room temperature (20 to 22° C.) and all recordings were performed at this temperature.
Neurons were visualized using IR-DIC optics (Zeiss Axioskop 2 FS plus, Gottingen, Germany), and neurons from lamina I and the outer layer of lamina II were selected based on their location relative to the substantia gelatinosa layer. Neurons were patch-clamped using borosilicate glass patch pipettes with resistances of 3 to 6 MΩ. Current-clamp recordings of lamina I/II neurons in the intact slice, the external recording solution was the above Ringer solution, while the internal patch pipette solution contained (in mM): 140 KGluconate, 4 NaCl, 10 HEPES, 1 EGTA, 0.5 MgCl2, 4 MgATP, 0.5 Na2GTP, adjusted to pH 7.2 with 5 M KOH and to 290 mOsm with D-Mannitol (if necessary). Only tonic firing neurons were selected for current-clamp experiments, while phasic, delayed onset and single spike neurons were discarded (22). Recordings were digitized at 50 kHz and low-pass filtered at 2.4 kHz.

[3] = Mouse rotarod assay (minimal muscular or neurological impairment); format: in vivo; conditions: mouse, in vivo, mice
Protocol: To assess a compound's undesirable side effects (toxicity), animals were monitored for overt signs of impaired neurological or muscular function. In mice, the rotarod procedure (Dunham and Miya, J. Am. Pharmacol. Assoc. 46:208-209 (1957)) is used to disclose minimal muscular or neurological impairment (MMI). When a mouse is placed on a rod that rotates at a speed of 6 rpm, the animal can maintain its equilibrium for long periods of time. The animal is considered toxic if it falls off this rotating rod three times during a 1-min period.

T1 sequence (O95180 whole entry): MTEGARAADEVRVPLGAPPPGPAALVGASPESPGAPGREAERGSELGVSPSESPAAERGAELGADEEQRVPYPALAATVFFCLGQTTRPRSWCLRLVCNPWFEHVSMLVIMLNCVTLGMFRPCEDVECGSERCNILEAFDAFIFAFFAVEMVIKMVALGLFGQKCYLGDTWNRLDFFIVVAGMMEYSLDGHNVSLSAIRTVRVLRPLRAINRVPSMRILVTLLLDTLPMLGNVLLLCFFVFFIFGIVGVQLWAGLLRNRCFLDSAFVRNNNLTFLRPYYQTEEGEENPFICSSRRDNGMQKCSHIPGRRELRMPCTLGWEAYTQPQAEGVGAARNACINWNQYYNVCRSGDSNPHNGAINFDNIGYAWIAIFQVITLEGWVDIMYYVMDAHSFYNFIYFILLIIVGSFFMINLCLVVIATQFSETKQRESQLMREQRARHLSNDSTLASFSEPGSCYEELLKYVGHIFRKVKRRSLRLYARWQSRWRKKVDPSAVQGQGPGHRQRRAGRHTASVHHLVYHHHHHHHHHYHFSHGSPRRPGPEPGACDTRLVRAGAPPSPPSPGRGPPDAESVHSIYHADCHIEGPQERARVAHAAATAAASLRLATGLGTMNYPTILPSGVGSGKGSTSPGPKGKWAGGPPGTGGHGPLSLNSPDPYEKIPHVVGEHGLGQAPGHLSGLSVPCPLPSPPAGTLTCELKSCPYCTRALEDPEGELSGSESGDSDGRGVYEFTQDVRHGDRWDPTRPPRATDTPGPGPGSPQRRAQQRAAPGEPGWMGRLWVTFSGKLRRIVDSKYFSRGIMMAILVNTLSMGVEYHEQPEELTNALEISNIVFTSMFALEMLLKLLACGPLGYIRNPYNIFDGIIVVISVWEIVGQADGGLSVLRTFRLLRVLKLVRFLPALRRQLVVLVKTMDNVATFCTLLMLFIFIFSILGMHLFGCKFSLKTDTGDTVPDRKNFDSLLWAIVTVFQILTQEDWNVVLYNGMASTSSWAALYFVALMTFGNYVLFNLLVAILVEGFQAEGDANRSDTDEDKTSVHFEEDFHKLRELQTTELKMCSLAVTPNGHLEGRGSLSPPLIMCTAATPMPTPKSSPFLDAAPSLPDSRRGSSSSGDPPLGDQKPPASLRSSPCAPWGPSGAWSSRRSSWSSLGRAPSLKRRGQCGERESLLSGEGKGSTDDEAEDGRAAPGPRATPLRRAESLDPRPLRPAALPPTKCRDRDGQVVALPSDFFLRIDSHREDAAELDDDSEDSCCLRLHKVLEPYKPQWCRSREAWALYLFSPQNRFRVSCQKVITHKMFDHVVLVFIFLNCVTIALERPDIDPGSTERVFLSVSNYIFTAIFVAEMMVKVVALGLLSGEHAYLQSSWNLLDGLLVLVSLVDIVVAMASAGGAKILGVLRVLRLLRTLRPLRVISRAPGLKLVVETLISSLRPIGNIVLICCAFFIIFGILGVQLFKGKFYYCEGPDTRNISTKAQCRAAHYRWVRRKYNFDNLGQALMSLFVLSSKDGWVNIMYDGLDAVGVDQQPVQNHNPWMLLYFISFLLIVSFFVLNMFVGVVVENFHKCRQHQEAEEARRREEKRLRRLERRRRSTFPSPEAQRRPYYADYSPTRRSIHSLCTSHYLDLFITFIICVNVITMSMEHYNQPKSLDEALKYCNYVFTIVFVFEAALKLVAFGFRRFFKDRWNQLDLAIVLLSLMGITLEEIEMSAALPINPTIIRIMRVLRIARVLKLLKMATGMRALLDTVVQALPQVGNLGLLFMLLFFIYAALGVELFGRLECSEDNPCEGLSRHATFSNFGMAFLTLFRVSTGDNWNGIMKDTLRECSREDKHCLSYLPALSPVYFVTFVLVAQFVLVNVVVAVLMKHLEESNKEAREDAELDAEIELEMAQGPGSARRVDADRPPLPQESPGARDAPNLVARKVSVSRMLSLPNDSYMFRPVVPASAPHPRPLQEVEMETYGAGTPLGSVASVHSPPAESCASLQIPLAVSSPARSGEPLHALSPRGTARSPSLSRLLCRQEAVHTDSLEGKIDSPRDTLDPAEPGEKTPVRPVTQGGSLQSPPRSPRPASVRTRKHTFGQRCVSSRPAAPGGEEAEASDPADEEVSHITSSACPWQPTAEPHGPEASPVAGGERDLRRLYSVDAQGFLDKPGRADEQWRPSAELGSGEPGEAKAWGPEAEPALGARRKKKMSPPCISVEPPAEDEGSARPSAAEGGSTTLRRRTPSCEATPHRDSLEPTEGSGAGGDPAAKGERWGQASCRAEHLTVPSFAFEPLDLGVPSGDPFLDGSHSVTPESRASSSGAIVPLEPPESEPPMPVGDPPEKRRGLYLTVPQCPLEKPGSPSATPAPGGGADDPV

Compound | Fraction of current recovered at 5.1 s interval ([1]; 5.1 s interval) | Fraction current remaining at −40 mV ([1]; at −40 mV) | V1/2 slow inactivation ([1]; voltage-dependence of half inactivation, HEK cells, whole-cell) | % Spike Change (Mean; % change from control) [2] | TD50 [3] | EC50 ([2]; Rattus norvegicus, Neuron)
O=C1CN(CC(=O)Nc2cc(C(F)(F)F)cc(C(F)(F)F)c2)CCN1 [Compound 9, N-(3,5-bis(trifluoromethyl)phenyl)-2-(3-oxopiperazin-1-yl)acetamide] | *0.80 | **0.32 | **−83 mV | −35.5% |  | 
O=C(CN1CCNCC1=O)Nc1cc(C(F)(F)F)cc(C(F)(F)F)c1 [Compound 1, N-(3,5-bis(trifluoromethyl)phenyl)-2-(2-oxopiperazin-1-yl)acetamide] |  |  |  | −47.3% | 300 mg/kg | 482 nM
